The source of these data is PMC12108457, “Trimethylamine N-Oxide (TMAO) Acts as Inhibitor of Endothelial Nitric Oxide Synthase (eNOS) and Hampers NO Production and Acetylcholine-Mediated Vasorelaxation in Rat Aortas” (Antioxidants, 2025).

As usually defined, the EC50 is the concentration that produces a half-maximal response. A low value points to an effect from little substance.

Each structure is given as a SMILES string.

Holding throughout (type): cell-based
For assay [1], the target named is T1, endothelial nitric oxide synthase (eNOS) (Homo sapiens, UniProt P29474).
T1 construct: gene NOS3
T1 sequence (P29474 2-1203): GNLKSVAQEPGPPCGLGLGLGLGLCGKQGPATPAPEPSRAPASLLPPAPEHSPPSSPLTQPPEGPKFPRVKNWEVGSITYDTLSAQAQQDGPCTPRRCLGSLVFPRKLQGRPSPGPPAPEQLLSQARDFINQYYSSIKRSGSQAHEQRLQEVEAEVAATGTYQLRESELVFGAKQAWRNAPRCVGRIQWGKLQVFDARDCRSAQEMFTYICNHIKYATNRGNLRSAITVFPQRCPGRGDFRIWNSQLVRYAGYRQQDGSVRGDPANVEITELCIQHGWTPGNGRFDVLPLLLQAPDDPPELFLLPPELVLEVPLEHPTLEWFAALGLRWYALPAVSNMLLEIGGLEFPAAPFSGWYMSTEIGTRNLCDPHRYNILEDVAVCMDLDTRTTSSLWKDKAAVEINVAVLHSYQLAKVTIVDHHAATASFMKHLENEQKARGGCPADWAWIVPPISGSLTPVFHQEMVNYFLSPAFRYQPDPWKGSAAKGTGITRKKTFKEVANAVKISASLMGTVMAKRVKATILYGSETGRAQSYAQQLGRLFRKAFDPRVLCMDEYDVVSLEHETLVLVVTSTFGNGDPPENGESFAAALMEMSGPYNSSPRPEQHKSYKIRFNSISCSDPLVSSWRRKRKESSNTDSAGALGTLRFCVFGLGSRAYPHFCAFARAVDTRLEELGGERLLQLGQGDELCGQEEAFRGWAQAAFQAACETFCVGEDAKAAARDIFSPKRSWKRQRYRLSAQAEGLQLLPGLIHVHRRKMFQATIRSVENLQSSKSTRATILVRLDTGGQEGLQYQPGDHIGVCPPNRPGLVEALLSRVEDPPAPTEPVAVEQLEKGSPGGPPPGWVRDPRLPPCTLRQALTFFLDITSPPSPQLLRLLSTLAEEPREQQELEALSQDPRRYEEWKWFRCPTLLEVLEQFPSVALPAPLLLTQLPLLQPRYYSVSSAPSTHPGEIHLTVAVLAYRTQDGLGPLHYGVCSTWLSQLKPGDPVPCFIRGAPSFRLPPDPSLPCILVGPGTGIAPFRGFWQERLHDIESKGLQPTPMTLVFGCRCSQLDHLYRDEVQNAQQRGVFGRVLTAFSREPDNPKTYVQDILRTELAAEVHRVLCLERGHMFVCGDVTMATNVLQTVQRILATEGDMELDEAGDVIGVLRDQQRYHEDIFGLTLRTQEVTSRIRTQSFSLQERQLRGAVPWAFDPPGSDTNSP
The experiment in a line: NO (DAF-FM) and ROS production in HUVECs at […] L-NAME.

For assay [2], the target named is T1, endothelial nitric oxide synthase (eNOS). The assay can be described thus: conversion of deuterated L-arginine to L-citrulline in HUVECs by MS; […] L-arginine rescues NO production.
The target is the same in assay [3]. The experiment in a line: NO production (DAF-FM) in HUVECs with L-arginine competition; deuterated L-arginine to L-citrulline conversion by MS.

As to `COC(=O)[C@@H](N)CCCNC(N)=N[N+](=O)[O-]` [L-NAME], the “NO (DAF-FM) and ROS production in HUVECs at 1 mM L-NAME” value in assay [1] was “NO production is indeed eNOS-dependent, as proven by the eNOS inhibitor L-NAME, whose presence strongly abolishes NO production”.

Regarding `N=C(N)NCCC[C@H](N)C(=O)O` [L-arginine], the “conversion of deuterated L-arginine to L-citrulline in HUVECs by MS; 20 mM L-arg” value in assay [2] was “we measured the rate of L-arginine’s conversion to L-citrulline by using stable isotope labeling and mass spectrometry”.

`C[N+](C)(C)[O-]` [Trimethylamine N-oxide] displayed a concentration giving a half-maximal response (EC50) in assay [3] of 2.5 ± 0.3 µM.
